Assay: Water solubility: distilled water added to a weighed amount until a clear solution is obtained
Format: physicochemical
Conditions: for solubility: thermodynamic from solid, distilled water, weight in mg divided by volume of clear solution in mL
Method: Measurement of the water solubility of the test compounds is accomplished by using methods well known to those skilled in the art. Specifically, to a weighed amount of the test compound of the example compound Formula I (1-3) distilled water was added in small proportions until a clear solution was obtained. The total volume of the solution is measured. The water solubility is calculated by dividing the weight of the salt, in milligrams (mg), by the volume of the solution, in mL. […] The compound of Formula I (1-3) is therefore, at least 260 times more soluble in water than EPA itself. This is a clear indication of an unexpectedly high degree of bioavailability of the compositions of the invention. Highly water soluble medicinal preparations, when administered orally, result in efficient absorption from the gastrointestinal tract in to systemic circulation. Furthermore, water soluble preparations are especially suitable for parenteral administration.

SMILES | times more soluble in water than EPA (ratio of water solubility versus eicosapentaenoic acid (EPA)) | solubility
CC/C=C\C/C=C\C/C=C\C/C=C\C/C=C\CCCC(=O)OCCCN1CC(O)[C@@H](O)[C@H](O)C1CO (stereo partly drawn) [Formula I (1-3)] | at least 260 times | 68.6 mg/mL
CC/C=C\C/C=C\C/C=C\C/C=C\C/C=C\CCCC(=O)O [EPA, Eicosapentaenoic acid, reference compound] |  | < 0.2 mg/mL

— patent US9150557B1, “Compositions and methods for the treatment of hyperglycemia” (CELLIX BIO PRIVATE LIMITED, priority 2014, dated 2015)
